According to PMC5464344, “Analgesic and anti‐inflammatory properties of novel, selective, and potent EP4 receptor antagonists” (Pharmacology Research & Perspectives, 2017):

Tests used:
[1] = test system: male Lewis rats, MIA injected knee; design: method as in Blanco et al. 2016b; conditions: results published previously, ref Blanco et al. 2016b; cited from earlier work
[2] = test system: female Lewis rats, collagen induced arthritis; assay: Type-II CIA model of inflammation and autoimmunity; assay type: in vivo; conditions: rat CIA
Experimental: For the monoiodoacetate (MIA) and adjuvant induced arthritis (AIA) studies, male Lewis rats (Envigo, Indianapolis, IN) of approximately 8 weeks of age at the time of disease induction were used. For collagen induced arthritis studies (CIA) female Lewis rats (Charles River) weighing 150–170 g were used. Rats were housed in groups of 2 or 3 per cage and maintained in a constant temperature, and on a 12 h light/12 h dark cycle. Animals had free access to food and water at all times except during data collection.
On day 1 of the study ankle widths are measured across the joint (left side to right side) at the thickest point with calipers and rats immunized intradermally near the base of the tail with 0.4 mL of 1 mg/mL type II collagen (Elastin Products) emulsified with incomplete Freund's adjuvant (Sigma Aldrich). A second booster injection booster of 0.4 mL of the collagen emulsion was given on day 8 of the study. Ankle widths were measured on day 8 before the collagen injection and every 2–3 days thereafter until study end. On day 11 rats were randomized into five groups of eight animals based on inflammation (redness and/or swelling) in their hind paws and body weight. Rats were then dosed with vehicle (10% Acacia plus 0.05% antifoam) and compound 3 at doses of 3, 10, and 30 mg/kg. Prednisolone was included at a dose of 10 mg/kg as a positive control. Dosing was by oral gavage once daily for seventeen days at a dose volume of 5 mL/kg. On day 28 rats were euthanized and hind paws and knee joints collected for histology. Ankles and knees were fixed in neutral buffered formalin, decalcified, embedded in paraffin, and sectioned according to standard histological methodology and the joints were then scored by a pathologist using published scoring criteria (Bendele 2001; Levine et al. 2014).

## Cc1ccc(N2CCC(O)CC2)nc1C(=O)Nc1c(C)cc(C(=O)O)cc1C [Compound 1]
[1]
  efficacy in rat MIA model of pain: effective

## Cc1ccc(-c2cccc(CO)c2)nc1C(=O)Nc1c(C)ccc(C(=O)O)c1C [Compound 3]
[2]; 10 and 30 mg/kg oral once daily for seventeen days
  ankle histology, nearly all parameters and summed scores: significant reductions
[2]; Fig. 10 bottom panel, prednisolone 10 mg/kg, compound 3 dose not given
  knee joint histopathology (representative photomicrograph): minimal inflammation (S) and cartilage damage (large arrow), very minimal pannus (small arrow) and bone formation (P) not visible at this magnification
[2]; Fig. 10 top panel, prednisolone 10 mg/kg, compound 3 dose not given
  ankle joint histopathology (representative photomicrograph): moderate inflammation (S) and cartilage damage (large arrow), mild pannus (small arrow) and mild periosteal bone formation
[2]; all three doses (3, 10, and 30 mg/kg) oral once daily, data not shown
  ankle thickness: significant reduction
